{"source": "patent US4560509A", "about": "“Antibiotic A39079 factor S-1” (Eli Lilly and Company, priority 1983, dated 1985)", "key": {"titration": {"assay": "titration", "format": "physicochemical", "settings": "66% aqueous dimethylformamide"}, "[1]": {"tested_on": "bacteria normally present in the monogastric digestive system", "assay": "glucose sparing / feed-utilization efficiency in monogastric animals", "settings": "statement in words", "from_the_text": "Yet another important property of factor S-1 is its ability to improve feed-utilization efficiency in monogastric animals. Commercially important monograstric animals include chickens and pigs. In addition, young ruminants, especially those still unweaned, function as monogastric animals. In the monogastric animal, bacteria and the host compete for nutrients in the digestive process. Agents which cause the bacteria to use less efficient substrates, leaving more efficient substrates such as glucose for the host animal, increase the feed-utilization efficiency of the host animal."}, "pathogenic bacteria": {"tested_on": "pathogenic bacteria", "assay": "growth inhibition of pathogenic bacteria (general statement)", "format": "cell-based", "from_the_text": "(§1) Table V summarizes the minimal inhibitory concentrations (MIC) at which factor S-1 inhibits certain organisms as determined by standard agar-dilution assays. In Table V, the activity of factor S-1 is compared with that of rifampin."}, "Serratia marcescens SE3": {"tested_on": "Serratia marcescens SE3", "assay": "standard agar-dilution MIC assay", "format": "cell-based", "settings": "agar dilution; Serratia marcescens SE3; read-out: MIC", "from_the_text": "as §1"}, "[2]": {"tested_on": "Pseudomonas aeruginosa X239", "assay": "standard agar-dilution MIC assay", "format": "cell-based", "settings": "agar dilution; Pseudomonas aeruginosa X239; read-out: MIC", "from_the_text": "as §1"}, "[3]": {"tested_on": "Staphylococcus aureus NRRL B313", "assay": "standard agar-dilution MIC assay", "format": "cell-based", "settings": "NRRLB313; agar dilution; Staphylococcus aureus NRRL B313; read-out: MIC", "from_the_text": "as §1"}, "Shigella sonnei N9": {"tested_on": "Shigella sonnei N9", "assay": "standard agar-dilution MIC assay", "format": "cell-based", "from_the_text": "as §1"}, "[4]": {"tested_on": "Staphylococcus epidermidis 222", "assay": "standard agar-dilution MIC assay", "format": "cell-based", "settings": "agar dilution; Staphylococcus epidermidis 222; read-out: MIC", "from_the_text": "as §1"}, "[5]": {"tested_on": "Enterobacter aerogenes C32", "assay": "standard agar-dilution MIC assay", "format": "cell-based", "settings": "Klebsiella aerogenes; agar dilution; Enterobacter aerogenes C32; read-out: MIC", "from_the_text": "as §1"}, "[6]": {"tested_on": "Staphylococcus aureus V41", "assay": "standard agar-dilution MIC assay", "format": "cell-based", "settings": "agar dilution; Staphylococcus aureus V41; read-out: MIC", "from_the_text": "as §1"}, "[7]": {"tested_on": "Klebsiella pneumoniae X68", "assay": "standard agar-dilution MIC assay", "format": "cell-based", "settings": "agar dilution; Klebsiella pneumoniae X68; read-out: MIC", "from_the_text": "as §1"}, "Salmonella typhi 1335": {"tested_on": "Salmonella typhi 1335", "assay": "standard agar-dilution MIC assay", "format": "cell-based", "settings": "Salmonella enterica", "from_the_text": "as §1"}, "[8]": {"tested_on": "Citrobacter freundii CF17", "assay": "standard agar-dilution MIC assay", "format": "cell-based", "settings": "agar dilution; Citrobacter freundii CF17; read-out: MIC", "from_the_text": "as §1"}, "[9]": {"tested_on": "Haemophilus influenzae 76", "assay": "standard agar-dilution MIC assay", "format": "cell-based", "from_the_text": "as §1"}, "Escherichia coli TEM": {"tested_on": "Escherichia coli TEM", "assay": "standard agar-dilution MIC assay", "format": "cell-based", "from_the_text": "as §1"}, "[10]": {"tested_on": "Streptococcus faecium ATCC 9790", "assay": "standard agar-dilution MIC assay", "format": "cell-based", "settings": "Enterococcus faecium, ATCC9790; agar dilution; Streptococcus faecium ATCC 9790; read-out: MIC", "from_the_text": "as §1"}, "[11]": {"tested_on": "Staphylococcus aureus X400", "assay": "standard agar-dilution MIC assay", "format": "cell-based", "settings": "agar dilution; Staphylococcus aureus X400; read-out: MIC", "from_the_text": "as §1"}, "[12]": {"tested_on": "Klebsiella pneumoniae X26", "assay": "standard agar-dilution MIC assay", "format": "cell-based", "settings": "agar dilution; Klebsiella pneumoniae X26; read-out: MIC", "from_the_text": "as §1"}, "[13]": {"tested_on": "Haemophilus influenzae C.L.", "assay": "standard agar-dilution MIC assay", "format": "cell-based", "from_the_text": "as §1"}, "Proteus rettgeri C24": {"tested_on": "Proteus rettgeri C24", "assay": "standard agar-dilution MIC assay", "format": "cell-based", "settings": "Providencia rettgeri; agar dilution; Proteus rettgeri C24; read-out: MIC", "from_the_text": "as §1"}, "[14]": {"tested_on": "Enterobacter cloacae 265A", "assay": "standard agar-dilution MIC assay", "format": "cell-based", "settings": "agar dilution; Enterobacter cloacae 265A; read-out: MIC", "from_the_text": "as §1"}, "Escherichia coli EC14": {"tested_on": "Escherichia coli EC14", "assay": "standard agar-dilution MIC assay", "format": "cell-based", "from_the_text": "as §1"}, "Serratia marcescens X99": {"tested_on": "Serratia marcescens X99", "assay": "standard agar-dilution MIC assay", "format": "cell-based", "settings": "agar dilution; Serratia marcescens X99; read-out: MIC", "from_the_text": "as §1"}, "Enterobacter cloacae EB5": {"tested_on": "Enterobacter cloacae EB5", "assay": "standard agar-dilution MIC assay", "format": "cell-based", "settings": "agar dilution; Enterobacter cloacae EB5; read-out: MIC", "from_the_text": "as §1"}, "Salmonella typhi X514": {"tested_on": "Salmonella typhi X514", "assay": "standard agar-dilution MIC assay", "format": "cell-based", "settings": "Salmonella enterica", "from_the_text": "as §1"}, "[15]": {"tested_on": "Streptococcus sp. group D 9960", "assay": "standard agar-dilution MIC assay", "format": "cell-based", "settings": "agar dilution; Streptococcus sp. group D 9960; read-out: MIC", "from_the_text": "as §1"}, "[16]": {"tested_on": "Pseudomonas aeruginosa Ps18", "assay": "standard agar-dilution MIC assay", "format": "cell-based", "from_the_text": "as §1"}, "[17]": {"tested_on": "Klebsiella pneumoniae KAE", "assay": "standard agar-dilution MIC assay", "format": "cell-based", "settings": "agar dilution; Klebsiella pneumoniae KAE; read-out: MIC", "from_the_text": "as §1"}, "[18]": {"tested_on": "Staphylococcus epidermidis EPI1", "assay": "standard agar-dilution MIC assay", "format": "cell-based", "from_the_text": "as §1"}, "[19]": {"tested_on": "Pseudomonas aeruginosa Ps72", "assay": "standard agar-dilution MIC assay", "format": "cell-based", "from_the_text": "as §1"}, "[20]": {"tested_on": "Acinetobacter calcoaceticus AC12", "assay": "standard agar-dilution MIC assay", "format": "cell-based", "from_the_text": "as §1"}, "Proteus inconstans PR33": {"tested_on": "Proteus inconstans PR33", "assay": "standard agar-dilution MIC assay", "format": "cell-based", "settings": "Providencia alcalifaciens; agar dilution; Proteus inconstans PR33; read-out: MIC", "from_the_text": "as §1"}, "Escherichia coli N10": {"tested_on": "Escherichia coli N10", "assay": "standard agar-dilution MIC assay", "format": "cell-based", "from_the_text": "as §1"}, "[21]": {"tested_on": "Streptococcus pneumoniae Park 1", "assay": "standard agar-dilution MIC assay", "format": "cell-based", "settings": "PARK1; agar dilution; Streptococcus pneumoniae Park 1; read-out: MIC", "from_the_text": "as §1"}, "[22]": {"tested_on": "Staphylococcus aureus S13E", "assay": "standard agar-dilution MIC assay", "format": "cell-based", "from_the_text": "as §1"}, "[23]": {"tested_on": "Enterobacter aerogenes EB17", "assay": "standard agar-dilution MIC assay", "format": "cell-based", "settings": "Klebsiella aerogenes; agar dilution; Enterobacter aerogenes EB17; read-out: MIC", "from_the_text": "as §1"}, "Proteus morganii PR15": {"tested_on": "Proteus morganii PR15", "assay": "standard agar-dilution MIC assay", "format": "cell-based", "settings": "Morganella morganii; agar dilution; Proteus morganii PR15; read-out: MIC", "from_the_text": "as §1"}, "[24]": {"tested_on": "Pseudomonas aeruginosa X528", "assay": "standard agar-dilution MIC assay", "format": "cell-based", "settings": "agar dilution; Pseudomonas aeruginosa X528; read-out: MIC", "from_the_text": "as §1"}, "solubility": {"assay": "solubility", "format": "physicochemical"}}, "data": [{"smiles": "CC(=O)OC1C(C)C(O)C=COC2(C)Oc3c(C)c(O)c4c(c3C2=O)C(=O)C(C)=C(NC(=O)C=CC=CC(C)C(O)C(C)C(O)C1C)C4=O", "note": "(stereo not shown) [Factor S-1]", "values": [{"measurement": "pKa", "setting": "titration", "value": 8}, {"measurement": "effect on consumption of glucose by bacteria (glucose sparing)", "setting": "[1]", "value": "prevents the consumption of glucose by bacteria normally present in the monogastric digestive system"}, {"measurement": "inhibition of growth of pathogenic bacteria", "setting": "pathogenic bacteria", "value": "inhibits the growth of a broad spectrum of pathogenic bacteria, especially gram-positive bacteria"}, {"measurement": "MIC", "setting": "Serratia marcescens SE3", "value": 16, "unit": "µg/mL"}, {"measurement": "MIC", "setting": "[2]", "value": 16, "unit": "µg/mL"}, {"measurement": "MIC", "setting": "[3]", "value": 0.015, "unit": "µg/mL"}, {"measurement": "MIC", "setting": "Shigella sonnei N9", "value": 8, "unit": "µg/mL"}, {"measurement": "MIC", "setting": "[4]", "value": "< 8", "unit": "ng/mL"}, {"measurement": "MIC", "setting": "[5]", "value": 16, "unit": "µg/mL"}, {"measurement": "MIC", "setting": "[6]", "value": 0.015, "unit": "µg/mL"}, {"measurement": "MIC", "setting": "[7]", "value": 16, "unit": "µg/mL"}, {"measurement": "MIC", "setting": "Salmonella typhi 1335", "value": 32, "unit": "µg/mL"}, {"measurement": "MIC", "setting": "[8]", "value": 16, "unit": "µg/mL"}, {"measurement": "MIC", "setting": "[9]", "value": 0.125, "unit": "µg/mL"}, {"measurement": "MIC", "setting": "Escherichia coli TEM", "value": "> 128", "unit": "µg/mL"}, {"measurement": "MIC", "setting": "[10]", "value": 1, "unit": "µg/mL"}, {"measurement": "MIC", "setting": "[11]", "value": 0.06, "unit": "µg/mL"}, {"measurement": "MIC", "setting": "[12]", "value": 32, "unit": "µg/mL"}, {"measurement": "MIC", "setting": "[13]", "value": 0.25, "unit": "µg/mL"}, {"measurement": "MIC", "setting": "Proteus rettgeri C24", "value": 2, "unit": "µg/mL"}, {"measurement": "MIC", "setting": "[14]", "value": 32, "unit": "µg/mL"}, {"measurement": "MIC", "setting": "Escherichia coli EC14", "value": 16, "unit": "µg/mL"}, {"measurement": "MIC", "setting": "Serratia marcescens X99", "value": 32, "unit": "µg/mL"}, {"measurement": "MIC", "setting": "Enterobacter cloacae EB5", "value": 32, "unit": "µg/mL"}, {"measurement": "MIC", "setting": "Salmonella typhi X514", "value": 32, "unit": "µg/mL"}, {"measurement": "MIC", "setting": "[15]", "value": 1, "unit": "µg/mL"}, {"measurement": "MIC", "setting": "[16]", "value": "> 128", "unit": "µg/mL"}, {"measurement": "MIC", "setting": "[17]", "value": 16, "unit": "µg/mL"}, {"measurement": "MIC", "setting": "[18]", "value": "< 8", "unit": "ng/mL"}, {"measurement": "MIC", "setting": "[19]", "value": 16, "unit": "µg/mL"}, {"measurement": "MIC", "setting": "[20]", "value": 2, "unit": "µg/mL"}, {"measurement": "MIC", "setting": "Proteus inconstans PR33", "value": 8, "unit": "µg/mL"}, {"measurement": "MIC", "setting": "Escherichia coli N10", "value": 8, "unit": "µg/mL"}, {"measurement": "MIC", "setting": "[21]", "value": "< 8", "unit": "ng/mL"}, {"measurement": "MIC", "setting": "[22]", "value": 0.015, "unit": "µg/mL"}, {"measurement": "MIC", "setting": "[23]", "value": 32, "unit": "µg/mL"}, {"measurement": "MIC", "setting": "Proteus morganii PR15", "value": 8, "unit": "µg/mL"}, {"measurement": "MIC", "setting": "[24]", "value": 16, "unit": "µg/mL"}, {"measurement": "solubility", "setting": "solubility; solvents such as methanol, acetonitrile and acetone", "value": "soluble"}, {"measurement": "solubility", "setting": "solubility; water", "value": "only slightly soluble"}]}]}
